# In patent US20220282271A1, “HERBICIDE RESISTANT PLANTS AND METHODS OF MAKING AND USING” (OFFICE OF INNOVATION ADVANCEMENT AND COMMERCIALIZATION, priority 2019, published 2022):
# Legend:
# [1] = test system: Eleusine indica biotypes (S, R1, R2); assay: Herbicide rate screening assay (greenhouse, foliar-applied, visual injury); format: in vivo; settings: for I50, estimated rate required to reduce Eleusine indica biotype by 50% (Visual Control/Injury) / I90, estimated rate required to reduce Eleusine indica biotype by 90% (Visual Control/Injury): injury scores 14 days after treatment; for Parameter estimate a of sigmoidal model y = a/(1 + exp(−(x − x0)/b)) for percent injury / Parameter estimate b of sigmoidal model y = a/(1 + exp(−(x − x0)/b)) for percent injury / Parameter estimate x0 of sigmoidal model y = a/(1 + exp(−(x − x0)/b)) for percent injury: x = log-transformed herbicide rate (kg/ha), 14 DAT; for Control at labelled rate application: oxadiazon 2.24 kg/ha
# From the text: Three E. indica biotypes from different locations were used in this study. The R1 biotype was collected in Country Club of Virginia, Richmond, Va., and the R2 biotype was from River Bend Golf, New Bern, N.C. These two biotypes were previous confirmed resistant to preemergence application of oxadiazon, but have not been screened to other PPO inhibitors. The S biotype was collected from the Alabama Agricultural Experiment Station, Plant Breeding Unit, Tallassee, Ala., which was confirmed susceptible to PPO inhibitors. Seeds of the mature plants were harvested, air dried and stored in the 4° C. freezer until planted in the greenhouse.
# Greenhouse conditions were 30±3° C. at day/night temperature and ˜70% average relative humidity. The E. indica seeds were placed on the soil surface and lightly covered with sand in 28 cm*20 cm flats and watered as needed daily to ensure germination. Two weeks after emergence, seedlings were separated and transplanted to in individual 10-cm pots (volumes=0.5 L). Pots were filled with surface horizon of Marvyn sandy loam (fine-loamy, kaolinitic, thermic Typic Kanhapludults) soil with pH 6.4 and 1.2% organic matter. The plants were irrigated three times daily for 2 min with overhead irrigation and fertilized once at one week after transplanting at approximately 50 kg N ha^−1 with Scott's Miracle-Gro All-Purpose fertilizer (The Scotts Miracle-Gro Co. Marysville, Ohio). Plants were 5-10 cm in height with 3-5 tillers in size at the time of herbicide treatment.
# Herbicide treatments were foliar-applied at 280 L/ha using an enclosed spray chamber with a single 8002E nozzle (TeeJet Spray Systems Co, Wheaton, Ill.) at 32 PSI. Four herbicides were selected for the experiment: oxadiazon (Ronstar FLO, Bayer Environmental Sci., Research Triangle Park, N.C.), sulfentrazone (Dismiss, FMC Corporation, Philadelphia, Pa.), flumioxazin (Sureguard, Valent Corp., Walnut Creek, Calif.) and lactofen (Cobra, Valent Corp., Walnut Creek, Calif.). All the herbicides are from different herbicide chemical families of PPO inhibitors: oxadiazoles, triazolinone, N-phenylphthalimide and diphenyl ether, respectively. Herbicides were applied at 7 different rates based on each herbicide label rate: oxadiazon ranging from 0.14 to 8.96 kg/ha, sulfentrazone from 0.07 to 4.50 kg/ha, flumioxazin from 0.08 to 5.70 kg/ha, and lactofen from 0.029 to 1.75 kg/ha. A non-treated control (0 kg/ha) was included. 192 plants of each biotype were tested and experiments were conducted as completely random design, three replications for two runs.
# The visual injury rating scores per plant at 14 days after treatment (DAT) were recorded, where the visual injury rating scores were based on a 0 to 100 scale, which 0 is equated to no phytotoxicity and 100 is equated to complete control. Data subjected to ANOVA analysis at a significance level of P<0.05 using the PROC GLM procedure of SAS 9.4 (SAS Institute Inc., Cary, N.C.). All the herbicide rates were log transformed to make equal spacing between the herbicide treatments in order to facilitate regression analysis. The non-treated control was transformed to equal spacing based on the log rates of each herbicide, respectively. Data were fitted to a sigmoidal model using SigmaPlot 10.2 (Systat Software Inc., London, UK) using a sigmoidal function (Equation 1).
# y=a/(1+e^(−((x−x0)/b))) (1)
# In this fit sigmoidal model, where y represents E. indica visual damage relative to non-treated control (%), x represents the log-transformed herbicide rates (kg/ha), three parameters (a, b, x0) represents the y intercept.
# [2] = target: recombinant variant E. indica PPO1 A212T (Eleusine indica, UniProt A0A6G5XNV7, A212T); assay: In vitro PPO enzyme activity inhibition, variant PPO1 A212T; format: biochemical
# Sequence of recombinant variant E. indica PPO1 A212T (A0A6G5XNV7 entry or part of it A212T): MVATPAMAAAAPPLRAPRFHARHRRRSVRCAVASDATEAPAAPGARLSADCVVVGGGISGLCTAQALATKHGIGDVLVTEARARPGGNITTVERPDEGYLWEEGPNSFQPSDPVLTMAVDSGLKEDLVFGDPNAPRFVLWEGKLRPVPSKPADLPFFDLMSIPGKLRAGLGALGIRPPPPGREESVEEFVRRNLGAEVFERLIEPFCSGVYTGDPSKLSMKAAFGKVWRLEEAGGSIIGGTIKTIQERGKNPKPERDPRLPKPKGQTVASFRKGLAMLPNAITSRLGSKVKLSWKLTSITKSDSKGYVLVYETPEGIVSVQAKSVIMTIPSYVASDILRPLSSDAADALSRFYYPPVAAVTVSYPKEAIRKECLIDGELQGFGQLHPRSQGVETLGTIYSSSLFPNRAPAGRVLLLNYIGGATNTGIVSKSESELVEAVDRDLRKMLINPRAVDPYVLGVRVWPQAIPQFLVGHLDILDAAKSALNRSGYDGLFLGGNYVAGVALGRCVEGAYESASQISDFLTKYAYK
# From the text: Effects of A212T substitution were studied using the E. indica backbone. The wild-type E. indica PPO1 and the E. indica PPO1 A212T variants were synthesized de novo and subcloned into pRSetB plasmid (Invitrogen, Carlsbad, Calif.). The complete description of expression and purification of E. indica PPO1 and E. indica PPO1 A212T variant proteins were referenced to the method described for PPO2 by Rangani et al. (2019, Frontiers in Plant Sci., 10:568). Six PPO inhibitors, belonging to five different chemical families, were evaluated on the PPO enzyme activity at a concentrations ranging from 5.00×10^−5M to 5.12×10^−12M. Oxadiazon, sulfentrazone, saflufenacil and lactofen are from the class of oxadiazole, triazolinone, pyrimidinedione, and diphenyl ether, respectively. Flumioxazin and trifludimoxazin are from the same chemical family, N-phenylphthalimide. […] The assay was replicated twice.
# [3] = test system: Crotalaria spectabilis; assay: Weed control screen: showy crotalaria; format: in vivo; settings: 1.0 lb ai/a, applied approximately 3 weeks after emergence, relative to non-treated
# Method: (§1) Herbicides were applied at a spray volume of 280 L/ha with no adjuvant added to any herbicide mixture. Weed control was rated on a 0 to 100 percent phytoxicity scale with 0 being no plant injury/phytotoxicity and 100 being complete plant dessication. Twenty-one weeds were evaluated for response to herbicides (Table 3). The weeds selected were a mixture of weeds common in agronomic and horticultural crops. Herbicide was applied to all species approximately 3 weeks after emergence. Plant phytotoxicity rated as percent control relative to the non-treated.
# [4] = test system: Sesbania exaltata; assay: Weed control screen: hemp sesbania; format: in vivo; settings: 1.0 lb ai/a, applied approximately 3 weeks after emergence, relative to non-treated
# Method: as §1
# [5] = test system: Sida spinosa; assay: Weed control screen: prickly sida; format: in vivo; settings: 1.0 lb ai/a, applied approximately 3 weeks after emergence, relative to non-treated
# Method: as §1
# [6] = test system: Ipomoea quamoclit; assay: Weed control screen: cypressvine morningglory; format: in vivo; settings: 1.0 lb ai/a, applied approximately 3 weeks after emergence, relative to non-treated
# Method: as §1
# [7] = test system: Conyza candensis; assay: Weed control screen: glyphosate-resistant horseweed; format: in vivo; settings: 1.0 lb ai/a, applied approximately 3 weeks after emergence, relative to non-treated
# Method: as §1
# [8] = test system: Abutilon theophrasti; assay: Weed control screen: velvetleaf; format: in vivo; settings: 1.0 lb ai/a, applied approximately 3 weeks after emergence, relative to non-treated
# Method: as §1
# [9] = test system: Amaranthus palmeri; assay: Weed control screen: glyphosate resistant palmer amaranth; format: in vivo; settings: 1.0 lb ai/a, applied approximately 3 weeks after emergence, relative to non-treated
# Method: as §1
# [10] = test system: Twenty-one weeds common in agronomic and horticultural crops; assay: Weed control screen: summary over the twenty-one weeds; format: in vivo
# Method: as §1
structure (smiles),measurement,setting,value
"CC(C)Oc1cc(-n2nc(C(C)(C)C)oc2=O)c(Cl)cc1Cl [Oxadiazon, oxadiazon]",Increased resistance of oxadiazon resistant biotypes than the susceptible biotype,"[1]; R1 and R2 vs S biotype, post-emergence applied",up to 20 fold
same,"I50, estimated rate required to reduce Eleusine indica biotype by 50% (Visual Control/Injury)",[1]; R1 biotype,8.15 kg ha^−1
same,"I90, estimated rate required to reduce Eleusine indica biotype by 90% (Visual Control/Injury)",[1]; R1 biotype,14.60 kg ha^−1
same,Parameter estimate a of sigmoidal model y = a/(1 + exp(−(x − x0)/b)) for percent injury,[1]; R1 biotype,9925.40
same,Parameter estimate b of sigmoidal model y = a/(1 + exp(−(x − x0)/b)) for percent injury,[1]; R1 biotype,0.53
same,Parameter estimate x0 of sigmoidal model y = a/(1 + exp(−(x − x0)/b)) for percent injury,[1]; R1 biotype,3.75
same,"I50, estimated rate required to reduce Eleusine indica biotype by 50% (Visual Control/Injury)",[1]; R2 biotype,8.88 kg ha^−1
same,"I90, estimated rate required to reduce Eleusine indica biotype by 90% (Visual Control/Injury)",[1]; R2 biotype,18.29 kg ha^−1
same,Parameter estimate a of sigmoidal model y = a/(1 + exp(−(x − x0)/b)) for percent injury,[1]; R2 biotype,64371.40
same,Parameter estimate b of sigmoidal model y = a/(1 + exp(−(x − x0)/b)) for percent injury,[1]; R2 biotype,0.43
same,Parameter estimate x0 of sigmoidal model y = a/(1 + exp(−(x − x0)/b)) for percent injury,[1]; R2 biotype,3.99
same,"I50, estimated rate required to reduce Eleusine indica biotype by 50% (Visual Control/Injury)",[1]; S biotype,0.32 kg ha^−1
same,"I90, estimated rate required to reduce Eleusine indica biotype by 90% (Visual Control/Injury)",[1]; S biotype,1.56 kg ha^−1
same,Control at labelled rate application,[1]; S biotype,> 80%
same,Parameter estimate a of sigmoidal model y = a/(1 + exp(−(x − x0)/b)) for percent injury,[1]; S biotype,91.25
same,Parameter estimate b of sigmoidal model y = a/(1 + exp(−(x − x0)/b)) for percent injury,[1]; S biotype,0.25
same,Parameter estimate x0 of sigmoidal model y = a/(1 + exp(−(x − x0)/b)) for percent injury,[1]; S biotype,−0.54
same,Control at labelled rate application,"[1]; resistant biotypes (R1 and R2), flumioxazin 0.357 kg/ha, sulfentrazone 0.28 kg/ha, lactofen 0.22 kg/ha",< 20%
same,Control at labelled rate application,"[1]; resistant biotypes (R1 and R2), flumioxazin 0.357 kg/ha, sulfentrazone 0.28 kg/ha, lactofen 0.22 kg/ha, listed as oxadiazon",less than 10%
same,IC50,[2],> 10 µM
same,inhibition at 10 µM,[2]; read-out: Variant E. indica PPO1 A212T % inhibition,16%
same,Percent control (0 to 100),[3],99%
same,Percent control (0 to 100),[4],100%
same,Percent control (0 to 100),[5],90%
same,Percent control (0 to 100),[6],100%
same,Percent control (0 to 100),[7],30%
same,Percent control (0 to 100),[8],100%
same,Percent control (0 to 100),[9],75%
same,Number of the 21 weeds evaluated controlled at a level greater than or equal to 90%,[10]; 1.0 lb ai/a,13 weeds
same,Number of the 21 weeds controlled greater than or equivalent to glyphosate,[10]; 1.0 lb ai/a each,18 weeds
